Source: PMC7848910, “Multimodularity of a GH10 Xylanase Found in the Termite Gut Metagenome” (Applied and Environmental Microbiology, 2021)

Legend:
Assay in all cases: microscale thermophoresis, initial fluorescence analysis, RED-NHS labelled protein
Assay type in all cases: binding
Details in all cases: 50 mM phosphate pH 7, 0.05% Pluronic F-127
[1] = molecular target: T1, Pm25ΔCBMs (M6; M7 = Pm25ΔCBMs E546A) (termite gut metagenome, UniProt S0DFK9, E546A, form not given)
T1 construct: gene Pm25; Pm25 without its two inserted CBM4s (catalytic domain 66-151 and 514-753); synthetic gene, E. coli Tuner(DE3), TALON-purified
T1 sequence (S0DFK9 30-160 limits assumed, stated change not applied): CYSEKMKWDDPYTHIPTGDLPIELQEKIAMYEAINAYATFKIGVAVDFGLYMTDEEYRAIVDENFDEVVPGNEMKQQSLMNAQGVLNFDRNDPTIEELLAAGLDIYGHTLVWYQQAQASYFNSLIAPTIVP
T1 sequence (S0DFK9 487-776 E546A limits assumed): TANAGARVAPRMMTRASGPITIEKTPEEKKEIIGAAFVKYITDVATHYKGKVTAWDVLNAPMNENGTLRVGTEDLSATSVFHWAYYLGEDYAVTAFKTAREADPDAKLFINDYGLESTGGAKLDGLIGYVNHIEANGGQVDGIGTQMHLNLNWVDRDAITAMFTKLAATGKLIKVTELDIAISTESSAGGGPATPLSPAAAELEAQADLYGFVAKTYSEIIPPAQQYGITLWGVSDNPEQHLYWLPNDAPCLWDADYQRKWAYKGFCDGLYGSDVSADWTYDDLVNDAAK

CBM4-1 (M8) = molecular target: T2, CBM4-1 (M8) (termite gut metagenome, UniProt S0DFK9)
T2 construct: gene Pm25; isolated CBM4-1 domain, L167-L320 by primer name (domain 161-321), pET28a(+), E. coli Tuner(DE3), TALON-purified
T2 sequence (S0DFK9 167-320 limits assumed): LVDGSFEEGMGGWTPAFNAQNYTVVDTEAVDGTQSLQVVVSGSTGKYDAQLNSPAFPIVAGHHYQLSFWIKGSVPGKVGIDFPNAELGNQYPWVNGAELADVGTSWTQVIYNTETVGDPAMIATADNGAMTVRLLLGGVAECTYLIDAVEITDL

CBM4-2 (M9) = molecular target: T3, CBM4-2 (M9) (termite gut metagenome, UniProt S0DFK9)
T3 construct: gene Pm25; isolated CBM4-2 domain, D332-D484 by primer name (domain 324-486), pET28a(+), E. coli Tuner(DE3), TALON-purified
T3 sequence (S0DFK9 332-484 limits assumed): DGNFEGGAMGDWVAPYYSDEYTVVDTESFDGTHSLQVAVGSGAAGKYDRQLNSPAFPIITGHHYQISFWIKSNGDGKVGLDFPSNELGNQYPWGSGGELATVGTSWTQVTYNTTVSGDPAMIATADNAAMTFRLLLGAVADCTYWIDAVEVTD

- Kd [1]: 1500 ± 200 µM
- Kd (CBM4-1 (M8)): 4700 ± 400 µM
- Kd (CBM4-2 (M9)): 1800 ± 100 µM
SMILES: OC1OC[C@@H](O[C@@H]2OC[C@@H](O[C@@H]3OC[C@@H](O[C@@H]4OC[C@@H](O[C@@H]5OC[C@@H](O[C@@H]6OC[C@@H](O)[C@H](O)[C@H]6O)[C@H](O)[C@H]5O)[C@H](O)[C@H]4O)[C@H](O)[C@H]3O)[C@H](O)[C@H]2O)[C@H](O)[C@H]1O (stereo partly drawn) [X6, xylohexaose]
